# Source: patent US7160889B2, “Quinazoline compounds” (AstraZeneca AB, priority 2000, dated 2007)
# Target: T1, KDR receptor (Homo sapiens, UniProt P35968)
# T1 construct: made in house; host or cells: insect cells (e.g. Spodoptera frugiperda Sf21, baculovirus)
# Assay: In vitro receptor tyrosine kinase inhibition test (a), KDR receptor
# Type: biochemical
# Conditions: using the KDR receptor
# Source text: (a) In vitro Receptor Tyrosine Kinase Inhibition Test
# This assay determines the ability of a test compound to inhibit tyrosine kinase activity. DNA encoding VEGF, FGF or EGF receptor cytoplasmic domains may be obtained by total gene synthesis (Edwards M, International Biotechnology Lab 5(3), 19–25, 1987) or by cloning. These may then be expressed in a suitable expression system to obtain polypeptide with tyrosine kinase activity. […] In the case of the VEGF receptor Flt (Genbank accession number X51602), a 7 kb DNA fragment encoding most of the cytoplasmic domain, commencing with methionine 783 and including the termination codon, described by Shibuya et al (Oncogene, 1990, 5: 519–524), was isolated from cDNA and cloned into a baculovirus transplacement vector (for example pAcYM1 (see The Baculovirus Expression System: A Laboratory Guide, L. A. King and R. D. Possee, Chapman and Hall, 1992) or pAc360 or pBlueBacHis (available from Invitrogen Corporation)). This recombinant construct was co-transfected into insect cells (for example Spodoptera frugiperda 21(Sf21)) with viral DNA (eg Pharmingen BaculoGold) to prepare recombinant baculovirus. […]
# T1 sequence (P35968 786-1356 limits assumed): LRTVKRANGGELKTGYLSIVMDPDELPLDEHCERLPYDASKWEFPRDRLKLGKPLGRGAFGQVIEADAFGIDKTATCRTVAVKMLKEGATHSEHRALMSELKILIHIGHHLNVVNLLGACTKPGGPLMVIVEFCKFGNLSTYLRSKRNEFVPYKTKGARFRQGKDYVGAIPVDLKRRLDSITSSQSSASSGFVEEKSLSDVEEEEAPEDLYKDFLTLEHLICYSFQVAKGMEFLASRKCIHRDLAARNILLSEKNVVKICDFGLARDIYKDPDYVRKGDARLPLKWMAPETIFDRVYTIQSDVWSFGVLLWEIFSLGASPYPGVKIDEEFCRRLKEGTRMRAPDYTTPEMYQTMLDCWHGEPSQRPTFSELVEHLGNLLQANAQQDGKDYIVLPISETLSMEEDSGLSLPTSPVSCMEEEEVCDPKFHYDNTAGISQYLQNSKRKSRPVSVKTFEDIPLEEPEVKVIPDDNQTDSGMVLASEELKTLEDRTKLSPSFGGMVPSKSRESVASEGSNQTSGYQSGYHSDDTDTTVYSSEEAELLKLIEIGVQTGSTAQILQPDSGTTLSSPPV
smiles,measurement,value
COc1cc2c(Nc3ccc(Br)cc3F)ncnc2cc1OCC(O)CN1CCN(C)CC1 (stereo not shown) [Example 1],IC50,15 to 50 nM
